Literature values, collected in patent US5284873A (priority 1991, dated 1994).

Test system: prostate
Settings: treatment of the α-receptors with antagonists

| SMILES | improvement in prostate patients |
| --- | --- |
| CC(COc1ccccc1)N(CCCl)Cc1ccccc1 (centres unmarked) [phenoxybenzamine] | effective improvement |
| COc1cc2nc(N3CCN(C(=O)c4ccco4)CC3)nc(N)c2cc1OC [prazosin] | effective improvement |
